Experimental findings from patent US20050038072A1, “Nitrogeneous cyclic ketone derivative, process for producing the same, and use” (Takeda Chemical Industries, Ltd., priority 2001, published 2005) are described below.

SMILES strings stand for the structures. Where a name gives a salt, the structure may show the parent alone.

One series deals with T1, substance P receptor (Homo sapiens, UniProt P25103).
T1 construct: endogenous in cells; host or cells: IM-9 human lymphoblast cells (membrane preparation)
T1 sequence (P25103 whole entry): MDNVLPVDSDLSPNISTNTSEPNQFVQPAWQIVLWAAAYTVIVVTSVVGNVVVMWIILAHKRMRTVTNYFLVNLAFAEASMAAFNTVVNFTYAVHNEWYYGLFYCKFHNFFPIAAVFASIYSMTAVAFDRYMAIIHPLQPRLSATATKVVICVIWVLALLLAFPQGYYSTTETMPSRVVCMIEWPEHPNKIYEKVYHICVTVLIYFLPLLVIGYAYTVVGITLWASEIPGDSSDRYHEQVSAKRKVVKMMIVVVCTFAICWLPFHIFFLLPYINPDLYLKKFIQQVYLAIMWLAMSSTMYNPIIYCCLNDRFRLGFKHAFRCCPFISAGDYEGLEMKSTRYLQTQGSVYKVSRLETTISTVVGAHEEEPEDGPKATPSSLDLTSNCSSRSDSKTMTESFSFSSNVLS
Nature of the series: Radioligand receptor binding inhibiting activity (binding inhibitory activity using receptor from human lymphoblast cell (IM-9)). As to conditions: radioligand [125I]-labeled substance P (125I-BHSP), 25° C., 30 minutes. The procedure:
Radioligand receptor binding inhibiting activity (binding inhibitory activity using receptor from human lymphoblast cell (IM-9))
A modified method by M. A. Cascieri et al (Molecular Pharmacology, Vol. 42, p. 458 (1992)) was employed. The receptor was prepared from a human lymphoblast cell (IM-9). After inoculation of IM-9 cells (2×10^5 cells/ml), the cells were cultured for 3 days (1L), and then the culture was centrifuged at 500×G for 5 minutes to obtain a cell pellet. The resultant pellet was washed once with a phosphate buffer (FLOW LABORATORIES, CAT. No. 28-103-05), fractured in 30 ml of a 50 mM Tris-HCl buffer (pH 7.4) containing 120 mM sodium chloride, 5 mM potassium chloride, 2 μg/ml chymostatin, 40 μg/ml bacitracin, 5 μg/ml phosphoramidone, 0.5 mM phenylmethylsulfonyl fluoride and 1 mM ethylenediamine tetraacetic acid using a polytron homogenizer (Kinematika, Germany), and centrifuged at 40,000×G for 20 minutes. The separated material was washed twice with 30 ml of the buffer solution described above and stored frozen as a receptor standard preparation (−80° C.)
This preparation was suspended in a reaction buffer [50 mM Tris-HCl buffer (pH 7.4), 0.02% bovine serum albumin, 1 mM phenylmethylsulfonyl fluoride, 2 μg/ml of chymostatin, 40 μg/ml bacitracin, 3 mM manganese chloride] at a protein concentration of 0.5 mg/ml and a 100 μl portion was used for the reaction. The sample, 125I-BHSP (0.46 KBq) was also added and the mixture was reacted in a 0.2 ml reaction buffer at 25° C. for 30 minutes. A non-specific binding level was measured by adding substance P at 2×10^−6 M.
After the reaction, a Cell Harvester [290PHD manufactured by Cambridge Technology, Inc, USA] was used to conduct a rapid filtration over a glass filter [GF/B manufactured by Whatman, USA] whereby terminating the reaction, followed by washing three times with 250 μl of a 50 mM Tris-HCl buffer solution (pH 7.4) containing 0.02% bovine serum albumin. Then, the radioactivity remaining on the filter was counted with a gamma counter. The filter was used after immersing in a 0.1% polyethylene imine over a whole day and night followed by drying in air.
The radioligand means [^125I]-labeled substance P.

The compound `O=C1CN(Cc2ccccc2)CCC1C(c1ccc(F)cc1)c1ccc(F)cc1` (centres unmarked) (as salt: hydrochloride) [Example 195, 1-Benzyl-4-[bis(4-fluorophenyl)methyl]-3-piperidinone] gave a melting point of 177.5 to 179 °C. Compound `CCOc1ccccc1CN1CCC(=O)C(C(c2ccccc2)c2ccccc2)C1` (centres unmarked) [Example 99, 3-Benzhydryl-1-(2-ethoxybenzyl)-4-piperidinone] displayed a half-maximal inhibitory concentration (IC50) at substance P receptor of 0.44 nM. `COc1ccc([N+](=O)[O-])cc1CN1CCC(=O)C(C(c2ccccc2)c2ccccc2)C1` (centres unmarked) [Example 176, 3-Benzhydryl-1-(2-methoxy-5-nitrobenzyl)-4-piperidinone] had a melting point of 119 to 120 °C. On the same count and under the same terms, under `COc1c(CN2CCC(=O)C(C(c3ccccc3)c3ccccc3)C2)cc(C(C)(C)C)cc1C(C)(C)C` (centres unmarked) [Example 161, 3-Benzhydryl-1-(3,5-di-tert-butyl-2-methoxybenzyl)-4-piperidinone] stands 136 to 138 °C; under `O=C1CNCCC1C1c2ccccc2CCc2ccccc21` (centres unmarked) (as salt: hydrochloride) [Example 198, 4-(10,11-Dihydro-5H-dibenzo[a,d][7]annulen-5-yl)-3-piperidinone], 196 to 198 °C (dec.). `CCOc1ccc([N+](=O)[O-])cc1CN1CCC(=O)C(C(c2ccccc2)c2ccccc2)C1` (centres unmarked) [Example 185, 3-Benzhydryl-1-(2-ethoxy-5-nitrobenzyl)-4-piperidinone] displayed an IC50 at substance P receptor of 0.29 nM. That is a sub-nanomolar value. Still for that read-out and setting: under `CCOc1ccccc1CN1CCC(=O)C(C(c2ccc(F)cc2)c2ccc(F)cc2)C1` (centres unmarked) [Example 98, 3-[Bis(4-fluorophenyl)methyl]-1-(2-ethoxybenzyl)-4-piperidinone] stands 0.85 nM; under `COc1ccc(OC(F)(F)F)cc1CN1CCC(=O)C(C(c2ccccc2)c2ccccc2)C1` (centres unmarked) [Example 168, 3-Benzhydryl-1-[2-methoxy-5-(trifluoromethoxy)benzyl]-4-piperidinone], 0.34 nM. On to `COc1ccc(N(S(C)(=O)=O)S(C)(=O)=O)cc1CN1CCC(=O)C(C(c2ccccc2)c2ccccc2)C1` (centres unmarked) [Example 178, N-[3-[(3-Benzhydryl-4-oxo-1-piperidinyl)methyl]-4-methoxyphenyl]-N-(methylsulfonyl)methanesulfonamide], for which the melting point was in the range of 132 to 135 °C. The same measure, in the same setting: under `O=C1CCN(Cc2ccccc2)CC1C(c1ccc(Cl)cc1)c1ccccc1Cl` (centres unmarked) (as salt: hydrochloride) [Example 158, 1-Benzyl-3-[(2-chlorophenyl)(4-chlorophenyl)methyl]-4-piperidinone] stands 190 to 191 °C; under `COc1ccc2ccccc2c1CN1CCC(=O)C(C(c2ccc(F)cc2)c2ccc(F)cc2)C1` (centres unmarked) [Example 148, 3-[Bis(4-fluorophenyl)methyl]-1-[(2-methoxy-1-naphthyl)methyl]-4-piperidinone], 125 to 126 °C; under `CCOc1cccc(OC)c1CN1CCC(=O)C(C(c2ccccc2)c2ccccc2)C1` (centres unmarked) [Example 170, 3-Benzhydryl-1-(2-ethoxy-6-methoxybenzyl)-4-piperidinone], 137 to 138 °C. On the same count and under the same terms, under `O=C1CCN(Cc2ccccc2)CC1C(c1ccccc1)c1ccccc1F` (centres unmarked) (as salt: hydrochloride) [Example 157, 1-Benzyl-3-[(2-fluorophenyl)(phenyl)methyl]-4-piperidinone] stands 214 to 215 °C. As for `COc1ccc(NS(C)(=O)=O)cc1CN1CCC(=O)C(C(c2ccccc2)c2ccccc2)C1` (centres unmarked) [Example 183, N-[3-[(3-Benzhydryl-4-oxo-1-piperidinyl)methyl]-4-methoxyphenyl]methanesulfonamide], the melting point was 132 to 135 °C. The IC50 on substance P receptor was 0.26 nM. Consider `O=C1CCNCC1C(c1ccccc1)c1ccccc1F` (centres unmarked) (as salt: hydrochloride), for which the melting point lay within 204 to 205 °C.

Consider `O=C1CCN(Cc2cc([N+](=O)[O-])ccc2O)CC1C(c1ccccc1)c1ccccc1` (centres unmarked) [Example 184, 3-Benzhydryl-1-(2-hydroxy-5-nitrobenzyl)-4-piperidinone], for which the melting point lay in the range of 177 to 178 °C.

In turn, `COc1ccc(C(C)C)cc1CN1CCC(=O)C(C(c2ccccc2)c2ccccc2)C1` (centres unmarked) [Example 175, 3-Benzhydryl-1-(5-isopropyl-2-methoxybenzyl)-4-piperidinone] had an IC50 on substance P receptor of 0.42 nM. Still for that read-out and setting: next, `COc1ccc(Br)cc1CN1CCC(=O)C(C(c2ccc(F)cc2)c2ccc(F)cc2)C1` (single isomer, unassigned; (-)) [Example 163, (−)-3-[Bis(4-fluorophenyl)methyl]-1-(5-bromo-2-methoxybenzyl)-4-piperidinone]: 0.62 nM. Compound `COc1ccc(OC(F)(F)F)cc1CN1CCC(=O)C(C(c2ccccc2)c2ccccc2)C1` (centres unmarked) (as salt: hydrochloride) [Example 168, 3-Benzhydryl-1-[2-methoxy-5-(trifluoromethoxy)benzyl]-4-piperidinone] yielded a melting point of 174 to 175 °C.

The melting point is the temperature, or range, at which the solid turns liquid. Usually IC50 stands for the concentration at which inhibition is half-maximal. The low end stands for greater potency, the high end for weaker potency.
